Results from publication PMC5048182, “Structure and specificity of the Type VI secretion system ClpV-TssC interaction in enteroaggregative Escherichia coli” (Scientific Reports, 2016).
Entries after “also recorded” stand apart in the source; their conditions may differ.

Tested on: ClpV1-Nt (ClpV1 N-terminal domain)
Assay: Microscale thermophoresis (MST), binding of TssC N-terminal peptides to ClpV1-Nt
Set-up: species or system enteroaggregative Escherichia coli
Conditions: 200 nM labeled ClpV1-Nt vs up to 500 μM peptide, 25 mM Tris-HCl pH 7.5, 200 mM NaCl, glycerol 5%, 0.05% Tween-20, triplicate
Procedure: E. coli BL21 (DE3) pLysS cells carrying the pETG20A-ClpV1-Nt plasmid were grown at 37 °C in TB medium (1.2% peptone, 2.4% yeast extract, 72 mM K2HPO4, 17 mM KH2PO4, and 0.4% glycerol). Expression of clpV1-Nt was induced at A600 = 0.6 with 0.5 mM IPTG for 18 hours at 25 °C. Cells were then resuspended in lysis buffer (50 mM Tris-HCl pH 8.0, 300 mM NaCl, 1 mM EDTA, 0.5 mg/mL lysozyme, 1mM phenylmethylsulfonyl fluoride), submitted to several freeze-thawing cycles and sonicated after the addition of 20 μg/mL DNase and 20 mM MgCl2. Pellet and soluble fraction were separated by centrifugation for 30 min at 16,000 × g. The soluble fraction containing ClpV1-Nt was loaded onto a 5-mL Ni^2+ affinity column (HisTrap™ FF) using an ÄKTA Explorer apparatus (GE healthcare) and the immobilized proteins were eluted in 50 mM Tris-HCl pH8.0, 300 mM NaCl supplemented with 250 mM imidazole. The protein solution was desalted on a HiPrep 26/10 column (Sephadex^TM G-25, Amersham Biosciences), and ClpV1-Nt was obtained by cleavage using 2 mg of TEV protease for 18 hours at 4 °C and collected in the flow-through of a 5-mL Nickel column. The protein was concentrated using the centricon technology (Millipore, 10-kDa cut-off). […]
Microscale thermophoresis experiments were performed using a Monolith NT.115 apparatus (NanoTemper). […] Each data point was measured in triplicate. […]

Sequence: ATDDCLEEIINNTRA [TssC2 peptide, TssC2 (residues 15–29), […], synthesized by Genscript]
- binding to ClpV1-Nt (in words): no binding; also recorded: no interaction
